Target: T1, Human M4 (Homo sapiens, UniProt P08173)
T1 construct: expressed in transfected cells; host or cells: CHO-K1 (ATCC), co-transfected with chimeric G protein Gqi5
T1 sequence (P08173 1-479): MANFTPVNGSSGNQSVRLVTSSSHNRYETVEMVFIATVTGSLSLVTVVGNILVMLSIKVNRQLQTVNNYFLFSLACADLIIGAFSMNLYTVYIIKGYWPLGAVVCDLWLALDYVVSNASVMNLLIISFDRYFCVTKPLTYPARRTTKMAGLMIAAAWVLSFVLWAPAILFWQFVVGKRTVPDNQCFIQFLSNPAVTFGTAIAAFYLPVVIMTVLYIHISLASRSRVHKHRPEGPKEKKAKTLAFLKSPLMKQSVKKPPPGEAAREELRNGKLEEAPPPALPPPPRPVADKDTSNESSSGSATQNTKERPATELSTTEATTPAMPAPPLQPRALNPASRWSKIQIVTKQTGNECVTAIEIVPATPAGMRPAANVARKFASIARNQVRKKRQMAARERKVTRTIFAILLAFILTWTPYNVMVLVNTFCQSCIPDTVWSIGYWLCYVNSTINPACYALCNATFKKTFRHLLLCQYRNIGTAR
Assay: mAChR M4 cell-based functional assay (calcium flux, antagonism of EC80 acetylcholine response)
Details: M4/Gqi5/CHO-K1 cells; for remaining activity at 30 µM: % ACh maximum at 30 μM, read-out: Human M4 Emin (% ACh maximum at 30 μM); for IC50: concentration-dependent decrease of the response elicited by an EC80 concentration of acetylcholine
Method: Human or rat M4 cDNA, along with the chimeric G protein Gqi5, were transfected into Chinese hamster ovary (CHO-K1) cells purchased from the American Type Culture Collection using Lipofectamine2000. M4/Gqi5/CHO cells were grown in Ham's F-12 medium containing 10% heat-inactivated fetal bovine serum (FBS), 20 mM HEPES, 500 μg/mL G418 sulfate, and 200 μg/mL Hygromycin B.
For high throughput measurement of agonist-evoked increases in intracellular calcium, CHO-K1 cells stably expressing muscarinic receptors were plated in growth medium lacking G418 and hygromycin at 15,000 cells/20 μL/well in Greiner 384-well black-walled, tissue culture (TC)-treated, clear-bottom plates (VWR). Cells were incubated overnight at 37° C. and 5% CO2. The next day, cells were washed using an ELX 405 (BioTek) with assay buffer; the final volume was then aspirated to 20 μL. Next, 20 μL of a 2.3 μM stock of Fluo-4/acetoxymethyl ester (Invitrogen, Carlsbad, CA), prepared as a 2.3 mM stock in DMSO and mixed in a 1:1 ratio with 10% (w/v) Pluronic F-127 and diluted in assay buffer, was added to the wells and the cell plates were incubated for 50 min at 37° C. and 5% CO2. Dye was removed by washing with the ELX 405 and the final volume was aspirated to 20 μL. Compound master plates were formatted in a 10 point concentration-response curve (CRC) format (1:3 dilutions) in 100% DMSO with a starting concentration of 10 or 1 mM using a BRAVO liquid handler (Agilent). Test compound CRCs were then transferred to daughter plates (240 nL) using the Echo acoustic plate reformatter (Labcyte, Sunnyvale, CA) and then diluted into assay buffer (40 μL) to a 2× stock using a Thermo Fisher Combi (Thermo Fisher Scientific, Waltham, MA).
Calcium flux was measured using the Functional Drug Screening System (FDSS) 6000 or 7000 (Hamamatsu Corporation, Tokyo, Japan) as an increase in the fluorescent static ratio. Compounds were applied to cells (20 μL, 2×) using the automated system of the FDSS at 2 seconds into the protocol and the data were collected at 1 Hz. At 143 s, 10 μL of an EC20 concentration of the muscarinic receptor agonist acetylcholine was added (5×), followed by the addition of 12 μL of an EC80 concentration of acetylcholine at the 268 s time point (5×). Agonist activity was analyzed as a concentration-dependent increase in calcium mobilization upon compound addition. Positive allosteric modulator activity was analyzed as a concentration-dependent increase in the EC20 acetylcholine response. Antagonist activity was analyzed as a concentration-dependent decrease in the EC80 acetylcholine response; for the purposes of the tables herein, an IC50 (inhibitory concentration 50) was calculated as a concentration-dependent decrease of the response elicited by an EC80 concentration of acetylcholine. Concentration-response curves were generated using a four-parameter logistical equation in XLFit curve fitting software (IDBS, Bridgewater, NJ) for Excel (Microsoft, Redmond, WA) or Prism (GraphPad Software, Inc., San Diego, CA) or the Dotmatics software platform (Dotmatics, Bishop's Stortford, UK).
Compounds were synthesized as described above. Activity (IC50 and Emin) was determined in the mAChR M4 cell-based functional assay as described above and the data are shown in Table 2.

| Structure (SMILES) | remaining activity at 30 µM [%] | IC50 [nM] |
| --- | --- | --- |
| O=C(Nc1ccc(-c2ccc(N[C@H]3C[C@@H]4CN(CC5CCOCC5)C[C@@H]4C3)nn2)cc1)C1CC1 [Compound A26, N-(4-(6-(((3aR,5s,6aS)-2-((tetrahydro-2H-pyran-4-yl)methyl)octahydrocyclopenta[c]pyrrol-5-yl)amino)pyridazin-3-yl)phenyl)cyclopropanecarboxamide] | 3 | 6.8 |
| O=C(NC1CC1)c1ccc(-c2ccc(N[C@H]3C[C@@H]4CN(CC5CCOCC5)C[C@@H]4C3)nn2)cc1 [Compound A27, N-cyclopropyl-4-(6-(((3aR,5s,6aS)-2-((tetrahydro-2H-pyran-4-yl)methyl)octahydrocyclopenta[c]pyrrol-5-yl)amino)pyridazin-3-yl)benzamide] | 3 | 3.9 |
| O=C(NC1CC1)c1cccc(-c2ccc(N[C@H]3C[C@@H]4CN(CC5CCOCC5)C[C@@H]4C3)nn2)c1 [Compound A28, N-cyclopropyl-3-(6-(((3aR,5s,6aS)-2-((tetrahydro-2H-pyran-4-yl)methyl)octahydrocyclopenta[c]pyrrol-5-yl)amino)pyridazin-3-yl)benzamide] | 3 | 25 |
| CC(=O)Nc1cccc(-c2ccc(N[C@H]3C[C@@H]4CN(CC5CCOCC5)C[C@@H]4C3)nn2)c1 [Compound A29, N-(3-(6-(((3aR,5s,6aS)-2-((tetrahydro-2H-pyran-4-yl)methyl)octahydrocyclopenta[c]pyrrol-5-yl)amino)pyridazin-3-yl)phenyl)acetamide] | 3 | 34 |
| O=C(Nc1cccc(-c2ccc(N[C@H]3C[C@@H]4CN(CC5CCOCC5)C[C@@H]4C3)nn2)c1)C1CC1 [Compound A30, N-(3-(6-(((3aR,5s,6aS)-2-((tetrahydro-2H-pyran-4-yl)methyl)octahydrocyclopenta[c]pyrrol-5-yl)amino)pyridazin-3-yl)phenyl)cyclopropanecarboxamide] | 3 | 13 |
| [2H]C([2H])(C1CCOCC1)N1C[C@H]2C[C@H](Nc3ccc(-c4cccc(NC(C)=O)c4)nn3)C[C@H]2C1 [Compound A31, N-(3-(6-(((3aR,5s,6aS)-2-((tetrahydro-2H-pyran-4-yl)methyl-d2)octahydrocyclopenta[c]pyrrol-5-yl)amino)pyridazin-3-yl)phenyl)acetamide] | 3 | 11 |
| [2H]C([2H])(C1CCOCC1)N1C[C@H]2C[C@H](Nc3ccc(-c4cccc(NC(=O)C5CC5)c4)nn3)C[C@H]2C1 [Compound A32, N-(3-(6-(((3aR,5s,6aS)-2-((tetrahydro-2H-pyran-4-yl)methyl-d2)octahydrocyclopenta[c]pyrrol-5-yl)amino)pyridazin-3-yl)phenyl)cyclopropanecarboxamide] | 3 | 16 |
| [2H]C([2H])(C1CCOCC1)N1C[C@H]2C[C@H](Nc3ccc(-c4cccc(C(=O)NC5CC5)c4)nn3)C[C@H]2C1 [Compound A33, N-cyclopropyl-3-(6-(((3aR,5s,6aS)-2-((tetrahydro-2H-pyran-4-yl)methyl-d2)octahydrocyclopenta[c]pyrrol-5-yl)amino)pyridazin-3-yl)benzamide] | 3 | 22 |
| [2H]C([2H])(C1CCOCC1)N1C[C@H]2C[C@H](Nc3ccc(-c4ccc(C(=O)NC5CC5)cc4)nn3)C[C@H]2C1 [Compound A34, N-cyclopropyl-4-(6-(((3aR,5s,6aS)-2-((tetrahydro-2H-pyran-4-yl)methyl-d2)octahydrocyclopenta[c]pyrrol-5-yl)amino)pyridazin-3-yl)benzamide] | 4 | 1.1 |
| [2H]C([2H])(C1CCOCC1)N1C[C@H]2C[C@H](Nc3ccc(-c4ccc(NC(=O)C5CC5)cc4)nn3)C[C@H]2C1 [Compound A35, N-(4-(6-(((3aR,5s,6aS)-2-((tetrahydro-2H-pyran-4-yl)methyl-d2)octahydrocyclopenta[c]pyrrol-5-yl)amino)pyridazin-3-yl)phenyl)cyclopropanecarboxamide] | 4 | 1.2 |
| NC(=O)c1ccc(-c2ccc(N[C@H]3C[C@@H]4CN(CC5CCOCC5)C[C@@H]4C3)nn2)c(F)c1 [Compound A36, 3-fluoro-4-(6-(((3aR,5s,6aS)-2-((tetrahydro-2H-pyran-4-yl)methyl)octahydrocyclopenta[c]pyrrol-5-yl)amino)pyridazin-3-yl)benzamide] | 4 | 5.1 |
| CN(C)C(=O)c1ccc(-c2ccc(N[C@H]3C[C@@H]4CN(CC5CCOCC5)C[C@@H]4C3)nn2)c(F)c1 [Compound A37, 3-fluoro-N,N-dimethyl-4-(6-(((3aR,5s,6aS)-2-((tetrahydro-2H-pyran-4-yl)methyl)octahydrocyclopenta[c]pyrrol-5-yl)amino)pyridazin-3-yl)benzamide] | 5 | 14 |
| CCN(CC)C(=O)c1ccc(-c2ccc(N[C@H]3C[C@@H]4CN(CC5CCOCC5)C[C@@H]4C3)nn2)c(F)c1 [Compound A38, N,N-diethyl-3-fluoro-4-(6-(((3aR,5s,6aS)-2-((tetrahydro-2H-pyran-4-yl)methyl)octahydrocyclopenta[c]pyrrol-5-yl)amino)pyridazin-3-yl)benzamide] | 4 | 48 |
| CCC(=O)Nc1ccc(-c2ccc(N[C@H]3C[C@@H]4CN(CC5CCOCC5)C[C@@H]4C3)nn2)cc1 [Compound A39, N-(4-(6-(((3aR,5s,6aS)-2-((tetrahydro-2H-pyran-4-yl)methyl)octahydrocyclopenta[c]pyrrol-5-yl)amino)pyridazin-3-yl)phenyl)propionamide] | 3 | 3.1 |
| [2H]C([2H])(C1CCOCC1)N1C[C@H]2C[C@H](Nc3ccc(-c4ccc(NC(=O)CC)cc4)nn3)C[C@H]2C1 [Compound A40, N-(4-(6-(((3aR,5s,6aS)-2-((tetrahydro-2H-pyran-4-yl)methyl-d2)octahydrocyclopenta[c]pyrrol-5-yl)amino)pyridazin-3-yl)phenyl)propionamide] | 3 | 2.5 |
| CNC(=O)c1cccc(-c2ccc(N[C@H]3C[C@@H]4CN(CC5CCOCC5)C[C@@H]4C3)nn2)c1 [Compound A41, N-methyl-3-(6-(((3aR,5s,6aS)-2-((tetrahydro-2H-pyran-4-yl)methyl)octahydrocyclopenta[c]pyrrol-5-yl)amino)pyridazin-3-yl)benzamide] | 5 | 12 |
| CCNC(=O)c1cccc(-c2ccc(N[C@H]3C[C@@H]4CN(CC5CCOCC5)C[C@@H]4C3)nn2)c1 [Compound A43, N-ethyl-3-(6-(((3aR,5s,6aS)-2-((tetrahydro-2H-pyran-4-yl)methyl)octahydrocyclopenta[c]pyrrol-5-yl)amino)pyridazin-3-yl)benzamide] | 4 | 13 |

— patent publication US20240228468A1, “N-(6-((OCTAHYDROCYCLOPENTA[C]PYRROL-5-YI)AMINO)PYRIDAZIN-3-YL)PHENYL)CARBOXAMIDE AND (6- ((OCTAHYDROCYCLOPENTA[C]PYRROL-5-YL)AMINO)PYRIDAZIN-3-YL)BENZAMIDE DERIVATIVES AS MACHR M4 ANTAGONISTS FOR THE TREATMENT OF NEURODEGENERATIVE DISORDERS” (Vanderbilt University, priority 2021, published 2024)
